{"source": "patent US20020086027A1", "about": "“Composition and method for enhancing immunological memory response” (priority 1998, published 2002)", "key": {"[1]": {"test_system": "CD25+ primed T cells", "test": "Propidium iodide staining for apoptosis of CD25+ primed T cells", "type": "cell-based, human", "conditions": "over the 48 hour rest period after priming with drug", "protocol": "(§1) For analysis of cell surface markers, primed cell populations separated on Ficoll-Paque gradients were used. […] Briefly, 1-3×10^5 cells per well were stained with primary antibodies at 4° C., followed by appropriately labeled secondary reagents if required. Samples were analyzed using a Bryte flow cytometer (bio-Rad, Hemel Hampstead, UK). Antibodies to the T cell markers CD3 (OKT3), CD4 (OKT4), and to the activation markers CD25 and Fas (CD95) were used for staining. To detect apoptosis using propidium iodide (PI, Sigma Chemical Co.), antibody-stained cells were fixed and permeabilized with 70% ethanol, washed, and PI […] added just before cytometric analysis. Data were analyzed using FlowJo software (Treestar, San Jose, Calif.).\nThe differences between the kinetics of CD25 expression over two days of rest culture prompted the question of whether this was linked to effects of POX on the survival of T cells activated during priming. Almost all CD25^+ cells generated during priming were CD4 T cells (FIG. 17A). therefore, responder populations primed variously were stained in a two-color flow cytometric analysis for CD25 and Fas, since Fas engagement is involved in activation induced T cell death. The frequency and level of Fas expression in the CD25^+ population was unchanged in the presence (FIG. 20, panels B and D) or absence (panels A and C) of POX during priming. […]"}, "[2]": {"test_system": "experimental autoimmune encephalomyelitis", "conditions": "rat, in vivo; cited from earlier work"}, "[3]": {"test_system": "antigen-specific T cell memory", "test": "Mice immunized with ovalbumin without adjuvant, splenic T cell recall proliferation", "type": "in vivo", "conditions": "POX 1 mg per mouse per day, day -1 to day 5", "quoted_text": "Splenic cells were stimulated in vitro either on day 7 or on day 60 after immunization with titrated doses of ovalbumin for 4 days and pulsed with 3H-thymidine for 16 h before being harvested for scintillation spectrometry In the second system used to validate the memory-enhancing effects of POX, we have used immunization with a very poor immunogen, egg albumin without adjuvant."}, "[4]": {"test_system": "mercuric chloride-induced arthritis", "conditions": "rats; cited from earlier work"}, "[5]": {"test_system": "human T cells", "test": "Primary alloproliferative response of responder PBMCs to irradiated MHC-mismatched stimulator PBMCs ([3H]thymidine incorporation)", "type": "cell-based", "protocol": "In this system, we have used responses to first exposure as an indication of primary responses. When cells stimulated in this fashion are rested in culture and then restimulated with the same stimulator PBMCs, the 'recall' response measured are taken as an indication of immune memory. Proliferation is measured by the incorporation of radioactive tritiated thymidine in dividing cells. PBMCs from HLA-mismatched individuals were separated using density-gradient centrifugation on Ficoll-Paque (Pharmacia, Uppsala, Sweden). Stimulator PBMCs were used in titrated doses after g-irradiation (200 rads). For the primary proliferative alloresponses, stimulator in graded doses were used with 1-3×10^5 responders per well in 200 μl of RPMI-1640 (Life Technologies, Grand Island, N.Y.) fortified with L-glutamine (Life Technologies) and antibiotics, containing 10% heat-inactivated responder autologous serum. Cultures were incubated in a CO2 atmosphere for five days, pulsed with 0.5 uCi of (H^3)-thymidine (New England Nuclear, Boston, Mass.) for the last 8-12 hours of the assay and harvested onto glass fiber filters for counting cell-incorporated thymidine (Betaplate; Wallac, Finland). results are expressed as mean cpm±SE for triplicate cultures. Dibutyryl cyclic AMP (dbcAMP), pentoxifylline (POX), aphidicolin (all from Sigma Chemical Co., St Louis, Mo.) and recombinant IL-2 (Boehringer Manheim Corp., Manheim Germany) were added singly or together to the culture in various doses as indicated during priming and in primary alloresponse assays. […] Sigma Chemical Co.) at room temperature for 20 minutes, washed extensively and used. PBMCs from MHC-mismatched donors were used as responder-stimulator pairs. Stimulator cells were used after γ-irradiation (200 rad) at various concentrations, as shown. Proliferation assays were set up as parallel cultures and were pulsed and harvested as below on different days when necessary for the analyses of the kinetics of the response. Where appropriate, cyclosporin A (CsA, Sandoz, Milan, Italy), aphidicolin (Aph, Sigma Chemical Co., and/or pentoxifylline ([…], Sigma Chemical Co.) Were added at the concentrations indicated, or PFA-fixed PBMCs were used. The plated were pulsed with 0.5 to 1 μCi of (^3H)thymidine ([^3H]TdR. Amersham, Little Chalfont, U.K.) During the last 12 to 16 h of the assay (4 days for a recall assay and 6 days for a primary assay, unless indicated otherwise). [^3H] TdR incorporation was measured by harvesting the cultures on glass-fibers and counting in a scintillation counter (Betaplate: LKB-Pharmacia. Uppsala, […]). The results are expressed as mean cpm±SE of triplicate cultures."}, "[6]": {"test_system": "CD25+ CD4 T cells", "test": "Flow cytometry of CD25 and Fas (CD95) on primed cells", "type": "cell-based, human", "protocol": "as §1\nThe phenotype of CD4 T cells activated during priming in vitro was examined next using various markers associated with T cell activation. Antibodies against CD25 (IL-2Ra), CD26, CD45RO, CD69 and gp240 were used, but except for CD25, none of the other markers gave consistent and reliable results (data not shown). CD25 expression on CD4 T cells in the responder populations was examined in a two-color flow cytometric analysis at two separate time points,—at the end of six days of priming and after two further rest days in culture after washing and resuspension in resh medium without any stimuli. Most CD25-expressing cells in the primed cultures were CD4 T cells. […] The frequency of CD25 expression increased in the PBMC-primed responders (FIG. 17B) and this percentage was lower if POX (100 μg/ml) was present during priming (FIG. 17C). […] Similar data were observed if dbcAMP was present during priming (data not shown). It can be seen that the proportion of CD25* cells was reproducibly lower if POX was present during priming with allo-PBMCs. However, after 48 hours of rest in culture, the frequency of CD25* cells declined in the populations primed in the absence of POX, while it went up in the group primed under POX cover."}, "[7]": {"conditions": "orally administered; cited from earlier work"}}, "data": [{"compound": "CC(=O)CCCCn1c(=O)c2c(ncn2C)n(C)c1=O", "note": "[POX, pentoxifylline]", "values": [{"measurement": "proportion of apoptotic cells in the CD25+ population", "setting": "[1]", "result": "does not increase significantly"}, {"measurement": "protection against EAE", "setting": "[2]", "result": "significant protection"}, {"measurement": "T cell memory recalled", "setting": "[3]; day 7 post-immunization", "result": "higher"}, {"measurement": "T cell memory recalled", "setting": "[3]; day 60 post-immunization", "result": "dramatically high"}, {"measurement": "protection against arthritis", "setting": "[4]", "result": "significant protection"}, {"measurement": "primary proliferative response", "setting": "[5]; Trental 100 ug/ml added to cells on 1 μg/ml Aph", "result": "further decreases"}, {"measurement": "kinetics of primary response", "setting": "[5]; days 4-10, drugs present throughout", "result": "declines equivalently"}, {"measurement": "primary proliferative response", "setting": "[5]; drug 100 ug/ml present during primary alloresponse", "result": "declines"}, {"measurement": "primary proliferative response", "setting": "[5]; drug 100 ug/ml present during primary alloresponse, listed as Trental", "result": "reduced significantly"}, {"measurement": "primary response after drug removal", "setting": "[5]; drugs removed on day 6, pulsed days 8 and 10", "result": "no increase"}, {"measurement": "primary proliferative response", "setting": "[5]; increasing doses 1-300 μg/ml, preliminary titrations", "result": "decrease"}, {"measurement": "primary response to PF-fixed PBMCs", "setting": "[5]; stimulators fixed with 0.05% PF, POX 100 ug/ml", "result": "not enhanced"}, {"measurement": "frequency of CD25 expression", "setting": "[6]; after two further rest days in culture without stimuli", "result": "increased frequency"}, {"measurement": "frequency of CD25 expression", "setting": "[6]; at end of six days of priming, POX 100 μg/ml", "result": "lower"}, {"measurement": "frequency and level of Fas expression in CD25+ population", "setting": "[6]; presence vs absence of POX during priming", "result": "unchanged"}, {"measurement": "LD50", "setting": "[7]", "result": "about 1385 milligrams per kilogram body weight"}]}]}
